Laboratory results as given in PMC8362182, “Acetylenic Replacement of Albicidin's Methacrylamide Residue Circumvents Detrimental E/Z Photoisomerization and Preserves Antibacterial Activity” (Chemistry (Weinheim an Der Bergstrasse, Germany), 2021).
Values after ≈ are worked out from the molar mass of the structure shown. Read-outs that look alike come from different tables or passages of the source.

Legend:
B. subtilis DSM10 [1] = tested on: T1, B. subtilis DSM10; assay: microbe, parasite or virus in culture; set-up: broth microdilution MIC in Mueller-Hinton Broth II, CLSI M07-A9; conditions: Bacillus subtilis
T1 construct: DSM10
Experimental: (§1) 2 Procedures for Biological Assays. Microdilution Assay. Minimal inhibitory concentration (MIC) values were determined according to the ninth edition of the Approved Standard M07-A9. The test was carried out for six different bacterial strains (E.coli DSM1116 [Gram-negative], E. coli BW25113 [Gram-negative], B. subtilis DSM10 [Gram-postive], M. luteus DSM1790 [Gram-postive], M. phlei DSM750 [Gram-postive], S. typhimurium TA100 [Gram-negative]. 20 µL of cryo stock of each strain were inoculated in 20 mL LB medium (Lysogeny broth: 10 g/L peptone, 5 g/L yeast extract, 5 g/L NaCl) followed by incubation overnight at 37 °C, 200 rpm. The test inoculum was adjusted by the 0.5 McFarland Standard (OD625 from 0.08 to 0.1). Within 15 min of preparation, the adjusted inoculum suspension was diluted in MHBII (BBLTM Mueller-Hinton Broth II, Becton, Dickinson and Company, New Jersey, USA) so that each well contained approximately 5 × 10^5 CFU/mL in a final volume of 100 µL. 95 µL of the inoculum were applied per well and 5 µL of the (diluted) antibiotic substance were added. Previously, the dry antibiotic compounds (1 to 15 and antibiotic control Ciprofloxacin (CIP)) were dissolved in DMSO (100%) with a concentration of 2560 µg/mL, and the so obtained stock solutions were further diluted in DMSO (100%). 5 µL of each antibiotic dilution were applied to the microdilution tray to reach final concentrations of 8 µg/mL to 0.016 µg/mL. One row of each well plate served as a growth control without antibiotic substances and another row of the microdilution tray served as sterility control (only MHB II-media). The antimicrobial effect of the solvent (DMSO) was tested by adding 5 µL DMSO to several wells. […] After UV exposure, we observed a second resonance set mainly for signals arising from residues MCA and pABA‐1. The new signals for the methyl, vinyl and aromatic protons of MCA were clearly shifted up‐field. To provide evidence that the second resonance set arose from the Z isomer, we performed 2D nuclear Overhauser enhancement (NOE) measurements, which unambiguously confirmed the expected atomic distances in the two isomeric states (Figure S1 in the Supporting Information). While only a small portion of the initial E state (t=0 h) was converted after t=2.5 h, an almost complete conversion to the Z isomer was detected after t=16 h. […] After 32 h, however, the equilibrium had also been reached and approximately 65 % of the fluoro analogue adopted the Z‐isomeric form (Figure S2). It is important to note that significant accumulation of the (Z)‐isomer also occurred when albicidin samples were exposed to sunlight (ca. 50 and 80 % Z after 32 and 160 h daylight, respectively) underlining the vulnerability of 1 during routine handling. These findings became even more relevant when we determined minimal inhibitory concentrations (MICs) against a panel of bacteria (Table S1). […] The fact, that the albicidin producer X. albilineans inhabits the xylem of sugar cane, which is exposed to sunlight, could severely impact the stability of albicid

E. coli BW25113 [2] = tested on: T2, E. coli BW25113; assay: microbe, parasite or virus in culture; set-up: broth microdilution MIC in Mueller-Hinton Broth II, CLSI M07-A9; conditions: Escherichia coli
T2 construct: BW25113
Experimental: as §1

E. coli DSM1116 [3] = tested on: T3, E. coli DSM1116; assay: microbe, parasite or virus in culture; set-up: broth microdilution MIC in Mueller-Hinton Broth II, CLSI M07-A9
T3 construct: DSM1116
Experimental: as §1

M. luteus DSM1790 [4] = tested on: T4, M. luteus DSM1790; assay: microbe, parasite or virus in culture; set-up: broth microdilution MIC in Mueller-Hinton Broth II, CLSI M07-A9; conditions: Micrococcus luteus
T4 construct: DSM1790
Experimental: as §1

S. typhimurium TA100 [5] = tested on: T5, S. typhimurium TA100; assay: microbe, parasite or virus in culture; set-up: broth microdilution MIC in Mueller-Hinton Broth II, CLSI M07-A9; conditions: Salmonella enterica
T5 construct: TA100
Experimental: as §1

B. subtilis DSM10 [6] = tested on: T1, B. subtilis DSM10; assay: microbe, parasite or virus in culture; set-up: broth microdilution MIC, CLSI M07-A9, MHB II; conditions: Bacillus subtilis
Experimental: (§2) 2 Procedures for Biological Assays. Microdilution Assay. Minimal inhibitory concentration (MIC) values were determined according to the ninth edition of the Approved Standard M07-A9. The test was carried out for six different bacterial strains (E.coli DSM1116 [Gram-negative], E. coli BW25113 [Gram-negative], B. subtilis DSM10 [Gram-postive], M. luteus DSM1790 [Gram-postive], M. phlei DSM750 [Gram-postive], S. typhimurium TA100 [Gram-negative]. 20 µL of cryo stock of each strain were inoculated in 20 mL LB medium (Lysogeny broth: 10 g/L peptone, 5 g/L yeast extract, 5 g/L NaCl) followed by incubation overnight at 37 °C, 200 rpm. The test inoculum was adjusted by the 0.5 McFarland Standard (OD625 from 0.08 to 0.1). Within 15 min of preparation, the adjusted inoculum suspension was diluted in MHBII (BBLTM Mueller-Hinton Broth II, Becton, Dickinson and Company, New Jersey, USA) so that each well contained approximately 5 × 10^5 CFU/mL in a final volume of 100 µL. 95 µL of the inoculum were applied per well and 5 µL of the (diluted) antibiotic substance were added. Previously, the dry antibiotic compounds (1 to 15 and antibiotic control Ciprofloxacin (CIP)) were dissolved in DMSO (100%) with a concentration of 2560 µg/mL, and the so obtained stock solutions were further diluted in DMSO (100%). 5 µL of each antibiotic dilution were applied to the microdilution tray to reach final concentrations of 8 µg/mL to 0.016 µg/mL. One row of each well plate served as a growth control without antibiotic substances and another row of the microdilution tray served as sterility control (only MHB II-media). The antimicrobial effect of the solvent (DMSO) was tested by adding 5 µL DMSO to several wells. Purity check and cell titer control were performed according to International Standard M07-

E. coli BW25113 [7] = tested on: T2, E. coli BW25113; assay: microbe, parasite or virus in culture; set-up: broth microdilution MIC, CLSI M07-A9, MHB II; conditions: Escherichia coli
Experimental: as §2

M. luteus DSM1790 [8] = tested on: T4, M. luteus DSM1790; assay: microbe, parasite or virus in culture; set-up: broth microdilution MIC, CLSI M07-A9, MHB II; conditions: Micrococcus luteus
Experimental: as §2

S. typhimurium TA100 [9] = tested on: T5, S. typhimurium TA100; assay: microbe, parasite or virus in culture; set-up: broth microdilution MIC, CLSI M07-A9, MHB II; conditions: Salmonella enterica
Experimental: as §2

E. coli DNA gyrase = biological target: T6, E. coli DNA gyrase (Escherichia coli, UniProt P0AES4+P0AES6); assay: DNA gyrase supercoiling assay; format: biochemical; conditions: tested at 45 nM
T6 construct: gene gyrA; holoenzyme A2B2 (known biology)

E. coli DSM1116 [10] = tested on: T3, E. coli DSM1116; assay: microbe, parasite or virus in culture; set-up: broth microdilution MIC, CLSI M07-A9, MHB II; conditions: Escherichia coli
Experimental: as §2

[11] = Escherichia coli, DSM1116, read-out: MIC

T6 sequence (P0AES4 2-875, one chain of several): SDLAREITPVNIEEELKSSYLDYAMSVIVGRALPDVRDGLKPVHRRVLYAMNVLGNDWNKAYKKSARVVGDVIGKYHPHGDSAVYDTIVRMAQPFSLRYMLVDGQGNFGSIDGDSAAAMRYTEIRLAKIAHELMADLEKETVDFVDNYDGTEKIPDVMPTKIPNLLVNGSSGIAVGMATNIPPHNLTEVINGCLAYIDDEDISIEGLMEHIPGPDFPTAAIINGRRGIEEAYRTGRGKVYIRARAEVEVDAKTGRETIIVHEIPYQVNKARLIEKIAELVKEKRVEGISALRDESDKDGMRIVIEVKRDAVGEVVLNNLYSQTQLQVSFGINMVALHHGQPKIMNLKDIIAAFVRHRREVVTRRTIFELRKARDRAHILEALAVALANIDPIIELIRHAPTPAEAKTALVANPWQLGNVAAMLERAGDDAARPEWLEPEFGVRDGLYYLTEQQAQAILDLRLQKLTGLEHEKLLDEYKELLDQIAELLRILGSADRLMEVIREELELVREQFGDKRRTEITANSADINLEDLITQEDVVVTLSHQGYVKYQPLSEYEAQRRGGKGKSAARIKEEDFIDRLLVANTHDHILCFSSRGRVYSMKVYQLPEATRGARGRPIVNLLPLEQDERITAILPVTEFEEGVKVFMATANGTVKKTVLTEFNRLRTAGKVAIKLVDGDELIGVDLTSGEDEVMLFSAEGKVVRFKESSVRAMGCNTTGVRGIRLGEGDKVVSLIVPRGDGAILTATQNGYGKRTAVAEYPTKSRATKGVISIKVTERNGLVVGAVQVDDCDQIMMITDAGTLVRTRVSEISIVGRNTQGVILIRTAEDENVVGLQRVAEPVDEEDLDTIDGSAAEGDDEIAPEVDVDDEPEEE

MIC (E. coli DSM1116 [3]; inhibitor, CIP) [µg/mL]	Structure (SMILES)	MIC (B. subtilis DSM10 [1]) [µg/mL]	MIC (E. coli BW25113 [2]) [µg/mL]	MIC (E. coli DSM1116 [3]; [11]) [µg/mL]	MIC (M. luteus DSM1790 [4]) [µg/mL]	MIC (S. typhimurium TA100 [5]) [µg/mL]	MIC (B. subtilis DSM10 [6]) [µg/mL]	MIC (E. coli BW25113 [7]) [µg/mL]	MIC (M. luteus DSM1790 [8]) [µg/mL]	MIC (S. typhimurium TA100 [9]) [µg/mL]	inhibition at 45 nM (E. coli DNA gyrase)	MIC (B. subtilis DSM10 [1]; dark sample, 100% E isomer) [µg/mL]	MIC (E. coli BW25113 [2]; dark sample, 100% E isomer) [µg/mL]	MIC (E. coli DSM1116 [3]; Escherichia coli, dark sample, 100% E isomer) [µg/mL]	MIC (M. luteus DSM1790 [4]; dark sample, 100% E isomer) [µg/mL]	MIC (S. typhimurium TA100 [5]; dark sample, 100% E isomer) [µg/mL]	MIC (E. coli DSM1116 [10]) [µg/mL]
0.031 (≈ 0.0936 µM)	O=C(O)c1cn(C2CC2)c2cc(N3CCNCC3)c(F)cc2c1=O [CIP, ciprofloxacin]	0.25 (≈ 0.754 µM)	≤ 0.016	0.016 (≈ 0.0483 µM)	1 (≈ 3.02 µM)	≤ 0.016	0.25 (≈ 0.754 µM)	≤ 0.016	1 (≈ 3.02 µM)	≤ 0.016							
	COc1c(NC(=O)c2ccc(NC(=O)c3ccc(NC(=O)[C@H](CC#N)NC(=O)c4ccc(NC(=O)/C(C)=C\c5ccc(O)cc5)cc4)cc3)c(OC)c2O)ccc(C(=O)O)c1O [Z isomer of albicidin]										the Z isomer was incapable of inhibiting DNA gyrase						
	COc1c(NC(=O)c2ccc(NC(=O)c3ccc(NC(=O)[C@H](CC#N)NC(=O)c4ccc(NC(=O)/C(C)=C/c5ccc(O)cc5)cc4)cc3)c(OC)c2O)ccc(C(=O)O)c1O [compound 1, albicidin]	0.25 (≈ 0.297 µM)	0.063 (≈ 0.0747 µM)	0.063 (≈ 0.0747 µM)	1 (≈ 1.19 µM)	≤ 0.016	0.25 (≈ 0.297 µM)	0.063 (≈ 0.0747 µM)	1 (≈ 1.19 µM)	≤ 0.016		0.25 (≈ 0.297 µM)	0.063 (≈ 0.0747 µM)	0.063 (≈ 0.0747 µM)	1 (≈ 1.19 µM)	0.016 (≈ 0.019 µM)	0.063 (≈ 0.0747 µM)
